Reference: ChEMBL document CHEMBL5728196, “Phenylate derivative, preparation method therefor, and pharmaceutical composition and uses thereof” (2021)

Target: Programmed cell death protein 1/Programmed cell death 1 ligand 1 (Homo sapiens, UniProt Q15116+Q9NZQ7)
Test: Inhibitory Activity Assay: 1. In vitro activity evaluation: Cisbio PD-1/PD-L1 binding assay kit was applied for the detection method of in vitro enzymology level.Screening Principles and Methods of PD-1/PD-L1 Small Molecule Inhibitors1) Principle: PD-1 protein is with HIS tag, and PD-1 ligand PD-L1 is with hFc tag. Eu labeled anti-hFc antibody and XL665 labeled anti-HIS antibody are combined with the above two label proteins respectively. After laser excitation, energy can be transferred from donor Eu to receptor XL665, allowing XL665 to glow. […] Reagents should be dispensed in the following order. For 384-well white ELISA plate, 2 μl of diluent or target compound diluted with diluent was added to each well, and then 4 μl of PD-1 protein and 4 μl of PD-L1 protein were added per well, incubated for 15 min at room temperature; and 10 μl of a mixture of anti-Tag1-Eu3+ and anti-Tag2-XL665 was added per well and incubated for 1 h to 4 h at room temperature and the fluorescence signals at 665 nm and 620 nm were measured with an Envison instrument. HTRF rate=(665 nm/620 nm)*104. 8-10 concentrations were detected for each compound and IC50 was calculated by Graphpad software.
Format: protein-complex assay

Programmed cell death protein 1/Programmed cell death 1 ligand 1, sequence (Q15116 whole entry): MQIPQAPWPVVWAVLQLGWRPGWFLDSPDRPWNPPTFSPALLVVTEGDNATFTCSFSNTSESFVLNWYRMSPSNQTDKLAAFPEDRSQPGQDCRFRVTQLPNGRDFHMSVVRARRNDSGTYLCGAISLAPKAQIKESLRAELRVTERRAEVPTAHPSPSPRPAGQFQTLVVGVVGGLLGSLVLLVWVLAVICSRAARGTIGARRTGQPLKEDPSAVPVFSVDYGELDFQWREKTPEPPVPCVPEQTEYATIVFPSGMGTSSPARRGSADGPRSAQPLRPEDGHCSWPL
Programmed cell death protein 1/Programmed cell death 1 ligand 1, sequence (Q9NZQ7 whole entry): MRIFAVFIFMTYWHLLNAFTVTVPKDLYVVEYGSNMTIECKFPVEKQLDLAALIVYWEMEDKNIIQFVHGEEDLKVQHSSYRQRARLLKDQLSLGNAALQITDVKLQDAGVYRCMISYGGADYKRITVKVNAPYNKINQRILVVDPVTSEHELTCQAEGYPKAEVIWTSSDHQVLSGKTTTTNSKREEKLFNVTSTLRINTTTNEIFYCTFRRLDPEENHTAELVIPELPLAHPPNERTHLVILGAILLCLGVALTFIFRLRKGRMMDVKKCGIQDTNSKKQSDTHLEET

Q: With NC(=O)COc1cc(OCc2cccc(-c3ccc4c(c3)OCCO4)c2Br)c(Cl)cc1CN1C[C@@H](O)C[C@H]1C(=O)O as the compound, how does the IC50 read?
A: Its IC50 is 0.182 µM.
